The subject of experiment [1] is zebrafish TRPM7 (drTRPM7) wild type. The experiment is described as follows: Whole-cell patch-clamp of tetracycline-induced HEK293 T-REx cells overexpressing wild type drTRPM7. The conditions noted are these: for Biophysical characteristic: effect on drTRPM7 (Table 1): heterologous drTRPM7; for effect of extracellular divalent application on monovalent outward currents: 10 mM divalent replacing 10 mM Ca^2+, NMDG external solution; for IC50: 200 s. Format: cell-based, zebrafish (Danio rerio). The protocol: (§1) HEK293 T-REx cells stably expressing HA-tagged Danio rerio TRPM7 (drTRPM7) wild type or mutants were cultured in DMEM with 10% FBS and 5 μg/ml of blasticidin and 200 μg/ml hygromycin. HEK293 T-REx cells were incubated at 37 °C and 5% CO2. Expression was induced by adding 1 μg/ml tetracycline to the growth media 20 hours before experiments. […] Chicken DT40 wild type and DT40 cells with a TRPM7 […] (DT40 TRPM7-KO) cells were maintained as described before.
(§2) Patch-clamp experiments were performed in the tight-seal whole-cell configuration at room temperature (20–25 °C). Whole-cell currents were recorded with the EPC9 (HEKA, Bellmore, NY) and Patchmaster v2.4 (HEKA). Voltages were corrected for a liquid junction potential of 10 mV. The patch pipettes were pulled from borosilicate glass (Sutter Instruments, USA) with resistances of 2.5–3.5 MΩ when filled with internal solution. The voltage ramp protocol ranged from −100 mV to 100 mV over 50 ms and applied at 0.5 Hz. Current amplitudes were measured at −80 mV and +80 mV. The holding potential was set to 0 mV in all experiments. Currents were filtered at 2.9 kHz and digitized at 10 kHz. Cells were seeded on glass cover slips 1–2 days before the day of the experiment. Cover slips were submerged in the external solution at room temperature (20–25 °C). Cover slips and external solutions were replaced every hour.
The standard external solution contained (in mM): 140 NaCl, 2.8 KCl, 2 MgCl2, 11 glucose, 10 HEPES, and 1 CaCl2. The divalent profile experiments were performed using a modified external solution that contained (in mM): 140 N-methyl-D-glucamine (NMDG), 11 glucose, 10 HEPES and 10 CaCl2. For application, 10 mM CaCl2 was replaced with 10 mM of the respective divalent under study. The standard internal solution contained (in mM): 140 Cs-glutamate, 8 NaCl, 10 HEPES, and 10 Cs-BAPTA. pH was adjusted to 7.2 and osmolarity was kept between 290–330 mOsm. The solutions for pH below 6.0 contained (in mM): 140 NaCl, 2.8 KCl, 2 MgCl2, 11 glucose, 10 MES, and 1 CaCl2. For the Mg·ATP dose-response analysis, the internal solution contained (in mM): 120 Cs-glutamate, 8 NaCl, 10 HEPES, 10 Cs-BAPTA. Na·ATP and MgCl2 was used to achieve appropriate concentrations of free intracellular Mg^2+ and Mg·ATP as calculated using WebmaxC Standard (http://www.stanford.edu/~cpatton/webmaxcS.htm).
Statistical analysis was performed using Fitmaster (version 2.69; HEKA, Germany) and Igor software (version 6.34; WaveMetrics, USA). The p-values were calculated using Microsoft Excel version 14.1.2 using the two-tailed paired Student’s T-test. Data were normalized to cell size and expressed as current density (pA/pF), or normalized to the time point right before application (I/I[time]s). […] Dose-response fits were assessed using the fit function f(x) = ([Maximum current] *(1/(1 + ([Estimated IC50]/x)^[Hill coefficient])). The IC50 or EC50 values calculated with the dose-response curve function were reported with ± standard deviation (S.D.).
To study channel biophysics, HA-tagged wild type zebrafish TRPM7 (drTRPM7) was cloned and stably expressed in HEK293 T-REx cells under tetracycline-inducible promotor (see methods; ref. [3]). […] Both clones were also tested for drTRPM7 expression using the whole-cell patch-clamp technique.
Background: Patch clamp records ionic current or voltage across a cell membrane.

In another experiment the test system is Mammalian TRPM7. The conditions noted are these: cited from earlier work.
Another experiment concerns human TRPM7 (hTRPM7). The note with it: cited from earlier work.
Experiment [2] deals with endogenous TRPM7-like currents in ZFL cells. The experiment is described as follows: Whole-cell patch-clamp of endogenous TRPM7-like currents in zebrafish liver cell line ZFL. Format: cell-based. The protocol:
as §1, §2

Another experiment has as its system Human TRPM6. The note with it: cited from earlier work.
The next experiment deals with drTRPM7-1258. The experiment is described as follows: Whole-cell patch-clamp of HEK293 T-REx cells overexpressing truncation mutant drTRPM7-1258. Format: cell-based, zebrafish (Danio rerio).
For a further experiment, the system named is drTRPM7-1178. The experiment is described as follows: Whole-cell patch-clamp of HEK293 T-REx cells overexpressing truncation mutant drTRPM7-1178. It is filed as cell-based, zebrafish (Danio rerio).
The next experiment relates to drTRPM7-1478. The experiment is described as follows: Whole-cell patch-clamp of HEK293 T-REx cells overexpressing truncation mutant drTRPM7-1478. Format: cell-based, zebrafish (Danio rerio). The conditions noted are these: +80 mV, 200 s; Hill = 2, 1.5 (Fig. 6 legend); read-out: IC50 of internal Mg^2+.
[3] abbreviates: 1 mM intracellular Mg·ATP, 250 μM free Mg^2+.

Values joined by “and” are separate entries in the source; they are usually repeats but may differ in a detail not shown here. Equal values may be shown once. Read-outs that look alike come from different tables or passages of the source.

Procedure for drTRPM7-1178: (§3) Patch-clamp experiments were performed in the tight-seal whole-cell configuration at room temperature (20–25 °C). Whole-cell currents were recorded with the EPC9 (HEKA, Bellmore, NY) and Patchmaster v2.4 (HEKA). Voltages were corrected for a liquid junction potential of 10 mV. The patch pipettes were pulled from borosilicate glass (Sutter Instruments, USA) with resistances of 2.5–3.5 MΩ when filled with internal solution. The voltage ramp protocol ranged from −100 mV to 100 mV over 50 ms and applied at 0.5 Hz. Current amplitudes were measured at −80 mV and +80 mV. The holding potential was set to 0 mV in all experiments. Currents were filtered at 2.9 kHz and digitized at 10 kHz. Cells were seeded on glass cover slips 1–2 days before the day of the experiment. […]
(§4) The standard external solution contained (in mM): 140 NaCl, 2.8 KCl, 2 MgCl2, 11 glucose, 10 HEPES, and 1 CaCl2. […] Na·ATP and MgCl2 was used to achieve appropriate concentrations of free intracellular Mg^2+ and Mg·ATP as calculated using WebmaxC Standard (http://www.stanford.edu/~cpatton/webmaxcS.htm).
Procedure for drTRPM7-1258: as §3, §4
Procedure for drTRPM7-1478: Patch-clamp experiments were performed in the tight-seal whole-cell configuration at room temperature (20–25 °C). Whole-cell currents were recorded with the EPC9 (HEKA, Bellmore, NY) and Patchmaster v2.4 (HEKA). Voltages were corrected for a liquid junction potential of 10 mV. […] Current amplitudes were measured at −80 mV and +80 mV. […]
as §4

As for `NCCOB(c1ccccc1)c1ccccc1` [2-APB, 2-aminoethyl diphenylborinate, reference compound], the “effect of 2-APB on drTRPM7 currents” value in experiment [1] (concentrations of 300 μM and above) was “greatly enhanced”; in experiment [1] (lower concentrations (30 μM and 100 μM)), “small but statistically not significant inhibitory effect”; in experiment [1] (various concentrations, up to 500 μM, external application), “facilitated rather than inhibited”. Further, the “Biophysical characteristic: effect on drTRPM7 (Table 1)” value in experiment [1] is recorded as “Potentiation”. In addition, in the experiment with Mammalian TRPM7 (Table 1), the “effect of 2-APB on mammalian TRPM7” value was “Inhibition[12]”. Also, in the experiment on human TRPM7 (hTRPM7), the “effect of 2-APB on hTRPM7 currents” value was “inhibits”. The “facilitation of inward and outward drTRPM7-like currents” value in experiment [2] (500 μM 2-APB applied at 400 s) is 50%. Moreover, in the experiment with Human TRPM6 (Table 1), the “effect of 2-APB on human TRPM6” value is “Potentiation[12]”. In the experiment on Human TRPM6, the “effect on human TRPM6 currents” value is given as “enhances”.

With `[Mg+2]` [Mg^2+, magnesium], in experiment [1] (+80 mV), the “effect of extracellular divalent application on monovalent outward currents” value (from here on “effect … on monovalent outward currents”) is “almost completely suppressed”. The IC50 in experiment [1] (current at +80 mV, Hill coefficient 1, read-out: IC50 of intracellular free Mg^2+ on drTRPM7 currents) is 778 µM; in the experiment with drTRPM7-1258 (+80 mV, 200 s, Hill = 2, read-out: IC50 of internal Mg^2+) it was 250 ± 0.52 µM; in the experiment on drTRPM7-1178 (+80 mV, 200 s, Hill = 3, read-out: IC50 of internal Mg^2+), 840 ± 158 µM; in the experiment with Mammalian TRPM7 (Table 1, read-out: IC50 of Mg^2+ on mammalian TRPM7), 720 µM; in the experiment with Mammalian TRPM7 (read-out: IC50 of intracellular Mg^2+ on heterologous and/or native mouse and human TRPM7), about 750 µM; with drTRPM7-1478, 450 ± 0.55 µM. Also, the IC50 in the experiment with Human TRPM6 (Table 1, read-out: IC50 of Mg^2+ on human TRPM6) was 29 µM. The “effect of intracellular free Mg^2+ on drTRPM7-like current development” value in experiment [2] (3.2 mM free Mg^2+ in pipette solution) is “completely suppressed”.

For the compound `Nc1ncnc2c1ncn2[C@@H]1O[C@H](COP(=O)(O)OP(=O)([O-])OP(=O)([O-])O)[C@@H](O)[C@H]1O.[Mg+2]` [Mg·ATP, Mg·adenosine triphosphate], the IC50 in experiment [1] (internal free Mg^2+ 250 μM, +80 mV, Hill coefficient 1, read-out: IC50 of intracellular Mg·ATP on drTRPM7 currents) is 1160 µM and 1200 µM; in experiment [1] (internal free Mg^2+ 250 μM, +80 mV, Hill coefficient set to 1, read-out: IC50 of intracellular Mg·ATP on drTRPM7 currents (Fig. 1E legend)), 1160 ± 700 µM; in the experiment with Mammalian TRPM7 (Table 1, read-out: IC50 of Mg·ATP on mammalian TRPM7) it was 2000 µM. In addition, the “effect of Mg·ATP on drTRPM7-1258 currents” value in the experiment on drTRPM7-1258 (setting [3]) is on record as “fully inhibited”. For the same compound, in the experiment on drTRPM7-1258 (ratio of IC50 values), the “sensitivity to intracellular Mg·ATP of drTRPM7-1258 compared to drTRPM7-1478 and wild type” value was “about 4 fold”. In the experiment on drTRPM7-1178 (setting [3]), the “effect of Mg·ATP on drTRPM7-1178 currents” value is “did not seem to have any effect”. For the same compound, in the experiment with drTRPM7-1178 (up to 6 mM Mg·ATP, 250 μM free Mg^2+), the “sensitivity of drTRPM7-1178 currents to intracellular Mg·ATP” value is listed as “completely lost any sensitivity”. Besides, in the experiment with Human TRPM6, the “effect on human TRPM6 currents” value is “No effect[14]”.

As for `C=C1CC/C=C(\C)CC[C@@H]2C([C@H](C/C=C(\C)COC(C)=O)OC(C)=O)=CO[C@H](OC(C)=O)[C@@H]12` [Waixenicin A, reference compound], the “effect of waixenicin A on drTRPM7 currents” value in experiment [1] (10 μM waixenicin A, 410 μM internal free Mg / 780 μM free Mg^2+ (Fig. 4 legend)) is on record as “no effect”. Also, in experiment [1], the “Biophysical characteristic: effect on drTRPM7 (Table 1)” value is reported as “No effect”. Moreover, the “effect of waixenicin A on mammalian TRPM7” value in the experiment on Mammalian TRPM7 (Table 1) is “Inhibition[13]”. Moreover, the entries for the “effect on human TRPM6 currents” value with Human TRPM6 and in the experiment on Human TRPM6 (listed as waixenicin A) were “No effect[14]” and “no significant effect”, respectively.

Take `[Ba+2]` [barium]: the “effect … on monovalent outward currents” value in experiment [1] (+80 mV) is given as “facilitated outward currents”.

As for `[Cd]` [cadmium], the “effect … on monovalent outward currents” value in experiment [1] (+80 mV) is listed as “facilitated outward currents”.

Regarding `[Co+2]` [cobalt], the “effect … on monovalent outward currents” value in experiment [1] (+80 mV) was “almost completely suppressed”.

For `[Ni+2]` [nickel], in experiment [1] (+80 mV), the “effect … on monovalent outward currents” value is “almost completely suppressed”.

Regarding `[Sr+2]` [strontium], the “effect … on monovalent outward currents” value in experiment [1] (+80 mV) is listed as “facilitated outward currents”.
